Experimental data reported in patent US20250188151A1, “C-JUN ANTAGONIST PEPTIDES” (The University of Bath, priority 2022, published 2025).
Blank lines part the entries; values can stand above or below the molecule they belong to. Bridge positions count the residues as written; N and C are the ends. Ends that are not written are not given here. Peptide text beside a SMILES is read from it.

Columns and labels:
cJun/TRE DNA interaction = target: T1, cJun/TRE DNA interaction (Homo sapiens, UniProt P05412, S292Y); assay: CD cJun/TRE DNA antagonism (shift of TRE DNA peak at ~281 nm, Hill fit); type: biochemical; settings: ratio of CD IC50
T1 construct: The same 60 amino acid c-Jun bZIP construct was used for all experiments; His-SUMO (N, cleaved yes); made in house; host or cells: E. coli
Source text: Briefly, in TBS the coding region for the essential gene dihydrofolate reductase (DHFR) is mutated to incorporate TRE sites so that introduction of c-Jun to this gene inside E. coli produces a transcriptional block that abrogates cell proliferation. The TRE site-bound c-Jun molecules sterically prevent RNA polymerase transcribing the essential gene and this can only be restored upon introduction of an effective c-Jun/TRE antagonist. Consequently, the survival of a particular cell is controlled by the ability of a peptide library member to remove the c-Jun transcriptional block and therefore to restore DHFR activity. TBS thus facilitates the identification of therapeutically valuable sequences. Further details for the TBS assay are provided in WO2020128015, which is incorporated herein by reference in its entirety. […] The TRE-DNA construct produces a positive CD peak at ˜281 nm, which decreases in intensity upon c-Jun binding. […] This method allows for the calculation of an IC50 value by fitting the titration data to a Hill equation. In some embodiments, the c-Jun antagonist is able to inhibit the DNA-binding activity of c-Jun within 10-fold of the ability of HingeW to inhibit the DNA-binding activity of c-Jun (e.g. the c-Jun antagonist has a reduced ability to inhibit the DNA-binding activity of c-Jun that is within 10-fold of that determined for HingeW). In some embodiments, the c-Jun antagonist is able to inhibit the DNA-binding activity of c-Jun within 9-fold, preferably within 8-fold, more preferably within 7-fold, even more preferably within 6-fold, yet more preferably within 5-fold of the ability of HingeW to inhibit the DNA-binding activity of c-Jun. The ability of the c-Jun antagonist and HingeW to inhibit the DNA-binding activity may be measured using the TBS assay (e.g. by quantifying the number of colonies) or by determining the IC50 using a circular dichroism assay described herein. Optionally, the c-Jun antagonist may have this activity when cross-linked. Methods for cross-linking peptides are described in more detail below.
Therefore, the acidic domain was the initial focus for optimisation. 1 was iteratively truncated (2-6) to investigate the effect on c-Jun binding and c-Jun/TRE DNA antagonism. […] Thermal denaturation experiments were then used to determine the Tm of peptide-c-Jun heterodimers, which was used as an approximate measure of target engagement. CD was also used to investigate the ability of the functional activity of peptides in antagonising the c-Jun/TRE DNA interaction. The TRE-DNA construct used produces a positive CD peak at ˜281 nm (no c-Jun absorbance at this wavelength allows for direct measurement of DNA upon binding) which decreases in intensity upon c-Jun binding. […] This allowed for the calculation of an IC50 value by fitting the titration data to a Hill equation. […] The same 60 amino acid c-Jun bZIP construct was used for all experiments, regardless of antagonist peptide length.

cJun bZIP [1] = target: cJun bZIP (Homo sapiens, UniProt P05412, S292Y); assay: CD spectra and thermal denaturation of peptide/cJun heterodimers; settings: peptide (5 μM)/c-Jun (5 μM) heterodimer; Table 6
Description: Circular Dichroism (CD): An Applied Photophysics Chirascan was used for CD measurements, with a 200 μL sample in a 1 mm path length CD cell. Protein/DNA samples were suspended in 150 mM potassium phosphate, 150 mM potassium fluoride and 5 mM TCEP at pH 7.4 and were equilibrated for 30 minutes before measurement. […] These scans were averaged and converted to molar residue ellipticities (MRE). Thermal denaturation experiments were performed by measuring the ellipticity at 222 nm over a 1 to 90° C. gradient at 1° C. increments. Post-melt scans at 20° C. confirmed the transitions were reversible as they overlaid within 10% of the pre-melt scan.
Circular Dichroism (CD): An Applied Photophysics Chirascan was used for CD measurements, with a 200 μL sample in a 1 mm path length CD cell. Protein/DNA samples were suspended in 150 mM potassium phosphate, 150 mM potassium fluoride and 5 mM TCEP at pH 7.4 and were equilibrated for 30minutes before measurement. […] Thermal denaturation experiments were performed by measuring the ellipticity at 222 nm over a 1 to 90° C. gradient at 1° C. increments. Post-melt scans at 20° C. confirmed the transitions were reversible as they overlaid within 10% of the pre-melt scan.
Peptide helicity was determined by quantifying the CD signal at 222 nm of peptide only samples. Thermal denaturation experiments were then used to determine the Tm of peptide-c-Jun heterodimers, which was used as an approximate measure of target engagement. […] The same 60 amino acid c-Jun bZIP construct was used for all experiments, regardless of antagonist peptide length.

cJun = cJun (Homo sapiens, UniProt P05412, S292Y); assay: Isothermal titration calorimetry, Example 2 (PEAQ-ITC); type: binding; parameters: The same 60 amino acid c-Jun bZIP construct was used for all experiments; His-SUMO (N, cleaved yes); made in house; host or cells: E. coli; settings: ITC
Description: 2 μL injections of antagonist peptide at 25-200 μM were injected into the cell containing cJun at 2.5-20 μM. Software was used to record and analyse the heat change upon addition. Control experiments involved the injection of the antagonist peptide sample into the cell containing ITC buffer alone to determine the heat of dilution which was subtracted. The resulting binding data were fit to a one site binding model to extract the enthalpy change of binding (ΔH) and the equilibrium binding constant (KD), from which the free energy change of binding (ΔG) and the entropy change of binding (ΔS) was calculated (Wiseman et al., 1989). Thermodynamic parameters are presented as an average of two independent experiments with errors given as one standard deviation.

cJun bZIP [2] = target: T2, cJun bZIP (human, UniProt P05412 252-308, limits assumed); assay: cell-based or functional assay
T2 chain: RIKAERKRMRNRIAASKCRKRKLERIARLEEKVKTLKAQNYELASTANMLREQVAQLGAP

cJun bZIP [3] = target: T2, cJun bZIP; assay: cell-based or functional assay
cJun bZIP [4] = target: T2, cJun bZIP; assay: CD thermal denaturation, peptide 5 µM and c-Jun 5 µM

Molecule: CC[C@H](C)[C@H](NC(=O)[C@H](CCC(=O)O)NC(=O)[C@H](CCCCN)NC(=O)[C@H](CCCNC(=N)N)NC(=O)[C@H](CC(C)C)NC(=O)[C@H](C)NC(=O)[C@H](Cc1ccc(O)cc1)NC(=O)[C@H](CC(N)=O)NC(=O)[C@H](CCCNC(=N)N)NC(=O)[C@H](CCC(=O)O)NC(=O)[C@H](CCC(=O)O)NC(=O)[C@H](CC(C)C)NC(=O)[C@H](CCC(N)=O)NC(=O)[C@H](CCC(=O)O)NC(=O)[C@@H](NC(=O)[C@H](CCC(=O)O)NC(=O)[C@H](CCC(=O)O)NC(=O)[C@H](CCC(=O)O)NC(=O)[C@H](CC(C)C)NC(=O)[C@@H](NC(=O)[C@H](CC(=O)O)NC(=O)[C@H](CCC(=O)O)NC(=O)[C@H](CCC(=O)O)NC(=O)[C@@H](NC(=O)[C@@H](NC(=O)[C@H](CC(C)C)NC(C)=O)C(C)C)C(C)C)C(C)C)[C@@H](C)CC)C(=O)N[C@@H](CCC(=O)O)C(=O)N[C@@H](CC(=O)O)C(=O)N[C@@H](CC(C)C)C(=O)N[C@@H](CCC(N)=O)C(=O)N[C@H]1CCCCNC(=O)C[C@@H](C(=O)N[C@@H](CC(C)C)C(N)=O)NC(=O)[C@H](CCC(=O)O)NC(=O)[C@H](CC(C)C)NC(=O)[C@H](CCC(N)=O)NC1=O [Peptide 10] (Ac-LVVEEDVLEEEIEQLEERNYALRKEIEDLQKQLEDL-NH2; lactam 31-35)
fold increase in antagonism relative to the linear counterpart 5 (cJun/TRE DNA interaction): 1.9 fold
Tm (° C.) (cJun bZIP [1]): 68.3 ± 0.9 °C

Molecule: Ac-LARENEELEKEAEELVVEEDVLEEEIEQLEERNYALRKEIEDLQKQLEKL-NH2 [Peptide 2]
fold more effective antagonism than 10 (cJun/TRE DNA interaction): 4 fold
fold reduction in cJun/TRE antagonism relative to 1 (cJun/TRE DNA interaction): 1.2 fold
Tm (° C.) (cJun bZIP [1]): 68.5 ± 1.1 °C

Molecule: CC[C@H](C)[C@@H]1NC(=O)[C@H](CCC(=O)O)NC(=O)[C@@H](NC(=O)[C@H](CCCNC(=N)N)NC(=O)[C@H](CC(C)C)NC(=O)[C@H](C)NC(=O)[C@H](Cc2ccc(O)cc2)NC(=O)[C@H](CC(N)=O)NC(=O)[C@H](CCCNC(=N)N)NC(=O)[C@H](CCC(=O)O)NC(=O)[C@H](CCC(=O)O)NC(=O)[C@H](CC(C)C)NC(=O)[C@H](CCC(N)=O)NC(=O)[C@H](CCC(=O)O)NC(=O)[C@@H](NC(=O)[C@H](CCC(=O)O)NC(=O)[C@H](CCC(=O)O)NC(=O)[C@H](CCC(=O)O)NC(=O)[C@H](CC(C)C)NC(=O)[C@@H](NC(=O)[C@H](CC(=O)O)NC(=O)[C@H](CCC(=O)O)NC(=O)[C@H](CCC(=O)O)NC(=O)[C@@H](NC(=O)[C@@H](NC(=O)[C@H](CC(C)C)NC(=O)[C@H](CCC(=O)O)NC(=O)[C@H](CCC(=O)O)NC(=O)[C@H](C)NC(=O)[C@H](CCC(=O)O)NC(C)=O)C(C)C)C(C)C)C(C)C)[C@@H](C)CC)CCCCNC(=O)C[C@@H](C(=O)N[C@@H](CC(C)C)C(=O)N[C@@H](CCC(N)=O)C(N)=O)NC(=O)[C@H](CCC(=O)O)NC1=O [Peptide 29] (Ac-EAEELVVEEDVLEEEIEQLEERNYALRKEIEDLQ-NH2; lactam 28-32)
fold reduction in cJun/TRE antagonism relative to 1 (cJun/TRE DNA interaction): 10.4 fold
Tm (° C.) (cJun bZIP [1]): 57.2 ± 0.4 °C

Molecule: Ac-EAEELVVEEDVLEEEIEQLEERNYALRKEIEDLQKQLEKL-NH2 [Peptide 4]
Tm (° C.) (cJun bZIP [1]): 64.1 ± 1.5 °C
ΔG (cJun): -9.68 ± 0.115 kcal/mol
ΔH (cJun): -45.399 ± 1.93 kcal/mol
−TΔS (cJun): 35.73 ± 1.94 kcal/mol
Stoichiometry, n (cJun; c-Jun-peptide interaction): 0.91 ± 0.04

Second part, led by results:

fold reduction in antagonism relative to 5 (cJun/TRE DNA interaction): 1.7 fold
fold reduction in cJun/TRE antagonism relative to 1 (cJun/TRE DNA interaction): 9.7 fold
Tm (° C.) (cJun bZIP [1]): 55.1 ± 1.1 °C
Molecule: Ac-EDVLEEEIEQLEERNYALRKEIEDLQKQLEKLGAP-NH2 [Peptide 6]

fold decrease in antagonism, 5 to 6 (cJun bZIP [2]): 1.7 fold
fold decrease in cJun/TRE DNA antagonism, 1 to 6 (cJun bZIP [2]): 9.7 fold
IC50 CD (cJun bZIP [3]): 130 µM
B1: Peptide 6 (peptide)
peptide: EDVLEEEIEQLEERNYALRKEIEDLQKQLEKLGAP-NH2
notes: NΔ28; also called LZ-only portion of the HingeW molecule
Tm (° C.) of peptide-c-Jun heterodimer (cJun bZIP [4]): 55.1 ° C.

fold reduction in antagonism relative to 1 (cJun bZIP [2]): 8.8 fold
IC50 CD (cJun bZIP [3]): 118 µM
B2: HingeW variant peptide 27 (peptide)
peptide: Ac-EAEELVVEEDVLEEEIEQLEEKNKALKDEIEDLY-NH2
modifications: lactam 24-28 (inferred)
notes: Synthetic, NΔ20 CΔ10; also called cyclised form of 26/27
Tm (° C.) of peptide-c-Jun heterodimer (cJun bZIP [4]): 52.5 ° C.
